According to ChEMBL document CHEMBL1201862, “PubChem BioAssay data set” (2004):
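Protocol summary: plate cells (96-well), add compound at 5 concentrations, incubate 48 h, interpolate endpoints linearly. The concentration for 50% growth inhibition is given as GI50.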 Activity calls are given as the source filed them. Cut-off read from the data, not from the text of the source: active = GI50 up to about 1.1 µM and inactive = higher.

Legend:
Experiment in all cases: NCI-60 cell line screen, 48 h
786-0 = test system: 786-0
CAKI-1 = test system: CAKI-1
COLO 205 = test system: COLO 205
Hs-578T = test system: Hs-578T
IGROV-1 = test system: IGROV-1
KM12 = test system: KM12
MOLT-4 = test system: MOLT-4
Malme-3M = test system: Malme-3M
NCI-H23 = test system: NCI-H23
OVCAR-3 = test system: OVCAR-3
RPMI-8226 = test system: RPMI-8226
SF-539 = test system: SF-539
SK-MEL-28 = test system: SK-MEL-28
SK-MEL-2 = test system: SK-MEL-2
SK-MEL-5 = test system: SK-MEL-5
SK-OV-3 = test system: SK-OV-3
SW-620 = test system: SW-620
UACC-257 = test system: UACC-257
UACC-62 = test system: UACC-62

Row | SMILES | GI50 (786-0) | GI50 (CAKI-1) | GI50 (COLO 205) | GI50 (Hs-578T) | GI50 (IGROV-1) | GI50 (KM12) | GI50 (MOLT-4) | GI50 (Malme-3M) | GI50 (NCI-H23) | GI50 (OVCAR-3) | GI50 (RPMI-8226) | GI50 (SF-539) | GI50 (SK-MEL-28) | GI50 (SK-MEL-2) | GI50 (SK-MEL-5) | GI50 (SK-OV-3) | GI50 (SW-620) | GI50 (UACC-257) | GI50 (UACC-62)
1 | O=[N+]([O-])/C(C(Cl)=C(Cl)Cl)=C(/Sc1ccccc1)N1CCOCC1 | 2.28 µM (inactive) | 6.27 µM (inactive) | 3.88 µM (inactive) | 15.6 µM (inactive) | 3.13 µM (inactive) | 13.4 µM (inactive) | 2 µM (inactive) | 5.13 µM (inactive) | 11.3 µM (inactive) | 2.69 µM (inactive) | 2.62 µM (inactive) | 6.03 µM (inactive) | 4.74 µM (inactive) | 5.14 µM (inactive) | 3 µM (inactive) | 34.8 µM (inactive) | 2.26 µM (inactive) | 9.91 µM (inactive) | 3.62 µM (inactive)
2 | CS(=O)(=O)OCCN(CCOS(C)(=O)=O)c1ccc(/C=N/c2ccc3oc(=O)ccc3c2)cc1 | 0.321 µM (active) | 0.622 µM (active) | 2.05 µM (inactive) | 28.1 µM (inactive) | 12 µM (inactive) | 8.41 µM (inactive) | 0.318 µM (active) | 8.73 µM (inactive) | 2.04 µM (inactive) | 3.58 µM (inactive) | 6.53 µM (inactive) | 4.43 µM (inactive) | 12.9 µM (inactive) | 15.8 µM (inactive) | 7.08 µM (inactive) | 1.11 µM (active) | 14.2 µM (inactive) | 6.82 µM (inactive) | 1.8 µM (inactive)
3 | CC1=NC(C)(COC(=O)C2(C)NC(C)(CO)CO2)COC1=O (stereo not given) | > 100 µM (inactive) | > 100 µM (inactive) | > 100 µM (inactive) | > 100 µM (inactive) | > 100 µM (inactive) | > 100 µM (inactive) | > 100 µM (inactive) | > 100 µM (inactive) | > 100 µM (inactive) | > 100 µM (inactive) | > 100 µM (inactive) | > 100 µM (inactive) | > 100 µM (inactive) | > 100 µM (inactive) | > 100 µM (inactive) | > 100 µM (inactive) | > 100 µM (inactive) | > 100 µM (inactive) | > 100 µM (inactive)
4 | NCCNS(=O)(=O)c1ccc(N)cc1 | > 100 µM (inactive) | > 100 µM (inactive) | > 100 µM (inactive) | 66.1 µM (inactive) | > 100 µM (inactive) | > 100 µM (inactive) | > 100 µM (inactive) | > 100 µM (inactive) | > 100 µM (inactive) | > 100 µM (inactive) | > 100 µM (inactive) | 49.1 µM (inactive) | > 100 µM (inactive) | > 100 µM (inactive) | > 100 µM (inactive) | > 100 µM (inactive) | > 100 µM (inactive) | > 100 µM (inactive) | > 100 µM (inactive)
5 | CCOC(=O)/C=C(\C(=O)OCC)n1cc(C)c(=O)n(Cc2cnnn2COCCOC(C)=O)c1=O | 3.93 µM (inactive) | 3.13 µM (inactive) | 2.07 µM (inactive) | 14.3 µM (inactive) | 8.45 µM (inactive) | 16.4 µM (inactive) | 2.57 µM (inactive) | 1.48 µM (inactive) | 17.5 µM (inactive) | 11.7 µM (inactive) | 6.24 µM (inactive) | 2.2 µM (inactive) | 9.89 µM (inactive) | 19.1 µM (inactive) | 19.7 µM (inactive) | 55.7 µM (inactive) | 2.18 µM (inactive) | 13.4 µM (inactive) | 15.4 µM (inactive)
